Experiments:
Type in all cases: cell-based
[1] = test system: HL-60 cells (human acute myeloid leukemia cells); assay: Proliferation assay (alamarBlue) with HL-60 cells; details: for activity at 20 µM: Homo sapiens, Table 30, compound at 20 μM, read-out: Activity Range (AVEw, weighted arithmetic mean of normalized fluorescence intensity, DMSO = 1.0)
From the text: (§1) The antiproliferative activities of compounds falling under formula (Ia), (Tb) and (Ic), respectively, were investigated on cells or cell lines originating from a disorder of the haematopoietic system, including the myeloid cell compartment and the lymphoid cell compartment (T-cells and B-cells), the neuroendocrine system, the cervix, the breast, the ovaries, the lung, the gastrointestinal tract, and the mucosal epithelium, as well as from the skin epithelium and from the muscle. To this end, HL-60 cells, NB-4 cells, HH cells, RPMI-8402 cells, TANOUE cells, TT cells, HeLa cells, MDA-MB-231 cells, FU-OV-1 cells, LOU-NH91 cells, 23132/87 cells, CAL-27 cells, BHY cells, SCC-25 cells, A-431 cells, human primary epidermal keratinocytes (HPEK), and C2C12 cells were seeded into 96-well plates suitable for fluorescence assays (CORNING #3598) at following initial cell numbers: 1000 cells per well for HL-60; 1000 cells per well for NB-4; 5000 cells per well for HH; 5000 cells per well for RPMI-8402; 1500 cells per well for TANOUE; 9000 cells per well for TT; 2000 cells per well for HeLa; 3000 cells per well for MDA-MB-231; 3000 cells per well for FU-OV-1; 4000 cells per well for LOU-NH91; 2000 cells per well for 23132/87; 2000 cells per well for CAL-27; 1500 cells per well for BHY; 1500 cells per well for SCC-25; 700 cells per well for A-431; 1000 cells per well for HPEK; 500 cells per well for C2-C12. The cells were treated with compounds at indicated final concentrations (diluted from the 1000× stock-solutions in DMSO to a final DMSO concentration of 0.1% v/v in H2O (Water For Injection, WFI, Fisherscientific #10378939)) or with the empty carrier DMSO at 0.1% v/v as control for 5 days. At day 5 after starting the treatments the cells were subjected to the alamarBlue® Proliferation Assay (Bio-Rad Serotec GmbH, BUF012B) according to the protocol of the manufacturer. The readout was taken with a multi-well plate-reader in the fluorescence mode with applying a filter for excitation at 560 nm (band width 10 nm) and for emission at 590 nm (band width 10 nm). Control treatments for growth inhibition with commercial compounds such as Methotrexate (MTREX) and Resveratrol (RES) were included on every plate. Some of the test compounds of the present invention were obtained and applied as their salts. According cases are indicated in the column “Specification” in Table 30 to Table 62 and by their sum formula in Table 63.
(§2) The assays were performed in duplicate or more replicates of independent single experiments each containing a six-fold replicate for every condition. For every individual plate, the measured fluorescence intensity values of the conditions with compound treatment were normalized against the corresponding equally weighted arithmetic mean of the fluorescence intensity values of the six DMSO treated control wells in order to obtain the relative values to a baseline level of 1.0.
(§3) Two independent outlier analyses were performed according to the methods by Peirce and Chauvenet (Ross, Journal of Engineering Technology 2003, 1-12). Outliers confirmed by at least one of the methods were excluded from the calculations but not more than one value out of six per compound within a single experiment. The weighted arithmetic mean (here abbreviated as AVEw) for each compound was calculated from the normalized values over all independent replicates of the single experiments comprising the six replicates each. The corresponding standard deviation for the weighted arithmetic mean was calculated according to the method described by Bronstein et al. (Bronstein, Semendjajew, Musiol, Muhlig, Taschenbuch der Mathematik, 5th edition 2001 (German), publisher: Verlag Harri Deutsch, Frankfurt am Main and Thun) and was combined with the Gauβ′ error propagation associated with the performed calculation for the normalization. The resulting standard deviation is herein referred to as “combined standard deviation”. […]

[2] = test system: NB-4 cells (human acute promyelocytic leukemia cells); assay: Proliferation assay (alamarBlue) with NB-4 cells; details: for activity at 20 µM: Homo sapiens, Table 32, compound at 20 μM, read-out: Activity Range (AVEw, weighted arithmetic mean of normalized fluorescence intensity, DMSO = 1.0)
From the text: as §1, §2, §3

[3] = test system: HH cells (human cutaneous T-cell lymphoma cells); assay: Proliferation assay (alamarBlue) with HH cells; details: Table 34, compound at 20 μM, read-out: Activity Range (AVEw, weighted arithmetic mean of normalized fluorescence intensity, DMSO = 1.0)
From the text: as §1, §2, §3

[4] = test system: RPMI-8402 cells (human T cell acute lymphoblastic leukemia cells); assay: Proliferation assay (alamarBlue) with RPMI-8402 cells; details: Homo sapiens, read-out: Activity Range: weighted arithmetic mean (AVEw) of normalized fluorescence intensity relative to DMSO basis level 1.0
From the text: as §1, §2, §3

[5] = test system: TANOUE cells (human B cell leukemia cells); assay: Proliferation assay (alamarBlue) with TANOUE cells; details: Homo sapiens, B-cell, read-out: Activity Range: weighted arithmetic mean (AVEw) of normalized fluorescence intensity relative to DMSO basis level 1.0
From the text: as §1, §2, §3

[6] = test system: MDA-MB-231 cells (human breast carcinoma cells); assay: Proliferation assay (alamarBlue) with MDA-MB-231 cells; details: Homo sapiens, read-out: Activity Range: weighted arithmetic mean (AVEw) of normalized fluorescence intensity relative to DMSO basis level 1.0
From the text: as §1, §2, §3

[7] = test system: FU-OV-1 cells (human ovarian carcinoma cells); assay: Proliferation assay (alamarBlue) with FU-OV-1 cells; details: 20 μM
From the text: (§4) The antiproliferative activities of compounds falling under formula (Ia), (Tb) and (Ic), respectively, were investigated on cells or cell lines originating from a disorder of the haematopoietic system, including the myeloid cell compartment and the lymphoid cell compartment (T-cells and B-cells), the neuroendocrine system, the cervix, the breast, the ovaries, the lung, the gastrointestinal tract, and the mucosal epithelium, as well as from the skin epithelium and from the muscle. To this end, HL-60 cells, NB-4 cells, HH cells, RPMI-8402 cells, TANOUE cells, TT cells, HeLa cells, MDA-MB-231 cells, FU-OV-1 cells, LOU-NH91 cells, 23132/87 cells, CAL-27 cells, BHY cells, SCC-25 cells, A-431 cells, human primary epidermal keratinocytes (HPEK), and C2C12 cells were seeded into 96-well plates suitable for fluorescence assays (CORNING #3598) at following initial cell numbers: 1000 cells per well for HL-60; 1000 cells per well for NB-4; 5000 cells per well for HH; 5000 cells per well for RPMI-8402; 1500 cells per well for TANOUE; 9000 cells per well for TT; 2000 cells per well for HeLa; 3000 cells per well for MDA-MB-231; 3000 cells per well for FU-OV-1; 4000 cells per well for LOU-NH91; 2000 cells per well for 23132/87; 2000 cells per well for CAL-27; 1500 cells per well for BHY; 1500 cells per well for SCC-25; 700 cells per well for A-431; 1000 cells per well for HPEK; 500 cells per well for C2-C12. […] The readout was taken with a multi-well plate-reader in the fluorescence mode with applying a filter for excitation at 560 nm (band width 10 nm) and for emission at 590 nm (band width 10 nm). […]
as §2, with “1.0. […]” for “1.0.”

[8] = test system: LOU-NH91 cells (human lung squamous cell carcinoma cells); assay: Proliferation assay (alamarBlue) with LOU-NH91 cells; details: 20 μM
From the text: as §4
as §2, with “1.0. […]” for “1.0.”

[9] = test system: 23132/87 cells (human gastric adenocarcinoma cells); assay: Proliferation assay (alamarBlue) with 23132/87 cells; details: read-out: Activity Range: weighted arithmetic mean (AVEw) of normalized fluorescence intensity relative to DMSO basis level 1.0
From the text: as §1, §2, §3

[10] = test system: CAL-27 cells (human tongue squamous cell carcinoma cells); assay: Proliferation assay (alamarBlue) with CAL-27 cells; details: read-out: Activity Range: weighted arithmetic mean (AVEw) of normalized fluorescence intensity relative to DMSO basis level 1.0
From the text: as §1, §2, §3

[11] = test system: BHY cells (human oral squamous cell carcinoma cells); assay: Proliferation assay (alamarBlue) with BHY cells; details: read-out: Activity Range: weighted arithmetic mean (AVEw) of normalized fluorescence intensity relative to DMSO basis level 1.0
From the text: as §1, §2, §3

[12] = test system: SCC-25 cells (human tongue squamous cell carcinoma cells); assay: Proliferation assay (alamarBlue) with SCC-25 cells; details: Homo sapiens, read-out: Activity Range: weighted arithmetic mean (AVEw) of normalized fluorescence intensity relative to DMSO basis level 1.0
From the text: as §1, §2, §3

[13] = test system: A-431 cells (human epidermoid squamous cell carcinoma cells); assay: Proliferation assay (alamarBlue) with A-431 cells; details: for activity at 20 µM: Homo sapiens, read-out: Activity Range: weighted arithmetic mean (AVEw) of normalized fluorescence intensity relative to DMSO basis level 1.0
From the text: as §1, §2, §3

[14] = test system: C2C12 cells (murine myoblast cells); assay: Proliferation assay (alamarBlue) with C2C12 cells; details: Mus musculus, compound at 20 μM, read-out: Activity Range: weighted arithmetic mean (AVEw) of normalized fluorescence intensity, relative to DMSO basis level 1.0
From the text: as §1, §2, §3

[15] = test system: TT cells (human medullary thyroid carcinoma cells); assay: Proliferation assay (alamarBlue) with TT cells; details: compound at 20 μM
From the text: as §4
as §2, with “1.0. […]” for “1.0.”

[16] = test system: HeLa cells (human cervical adenocarcinoma cells); assay: Proliferation assay (alamarBlue) with HeLa cells; details: compound at 20 μM
From the text: as §4
as §2, with “1.0. […]” for “1.0.”

[17] = test system: HPEKp cells (human epidermal keratinocyte progenitors, pooled); assay: Proliferation assay (alamarBlue) with HPEKp cells; details: compound at 10 μM, read-out: Activity Range: weighted arithmetic mean (AVEw) of normalized fluorescence intensity, relative to DMSO basis level 1.0
From the text: as §1, §2, §3

[18] = test system: Notch signaling (human Notch1 receptor, hNotch1ΔE); assay: Notch reporter assay (dual luciferase, HeLa cells transfected with hNotch1ΔE); details: 10 μM
From the text: The activation level of Notch signaling can be quantified in vitro reliably by measuring the expression levels of Notch specific target genes. This can be accomplished by the quantification of corresponding mRNA or protein of a particular Notch target gene. Alternatively, cells can be genetically modified to carry a luciferase gene as an artificial Notch target gene, which is expressed in dependence of Notch activity. In this setting, Notch signaling levels can be quantified by measuring the luciferase-derived bioluminescence values.
An according Notch-reporter assay, i.e. a luciferase-based luminescence readout, was used here to quantify the ability of the claimed compounds to augment Notch signaling in a cellular system. […] After 24 hours of transfection, the transfected cells were carefully detached from the dish using 0.5 mM EDTA in PBS and seeded into 96-well plates suitable for luminescence readouts (CORNING, #3610) at 10,000 cells per well. […] Directly after the lysis, first the Firefly and then the Renilla luciferase values were measured consecutively from the same well with a luminescence reader immediately after applying 15 μL per well each of the corresponding enzyme substrates needed to create the luminescence signals (Promega, Dual-Luciferase® Reporter Assay System, #E1910). […]

Compound	activity at 20 µM [1] [%]	activity at 20 µM [2] [%]	activity at 20 µM [3] [%]	activity at 20 µM [4] [%]	activity at 20 µM [5] [%]	activity at 20 µM [6] [%]	activity at 20 µM [9] [%]	activity at 20 µM [10] [%]	activity at 20 µM [11] [%]	activity at 20 µM [12] [%]	activity at 20 µM [13] [%]	activity at 20 µM [14] [%]	activity at 10 µM [17] [%]	other results
CN(Cc1cnc2nc(N)nc(N)c2n1)c1ccc(C(=O)N[C@@H](CCC(=O)O)C(=O)O)cc1 [MTREX, Methotrexate, reference compound]	10 ± 10	10	40 ± 10	10	10	60	30	10	30	50 ± 10	20 ± 10	10	–	Activity Range (AVEw, weighted arithmetic mean of normalized fluorescence intensity, DMSO = 1.0) ([1]; Table 31, compound at 20 μM): 0.1 ± 0.1; Activity Range (AVEw, weighted arithmetic mean of normalized fluorescence intensity, DMSO = 1.0) ([2]; Table 33, compound at 20 μM): 0.1 ± 0.0; Activity Range: weighted arithmetic mean (AVEw) of normalized fluorescence intensity relative to DMSO basis level 1.0 [7]: 1 ± 0.0; Activity Range: weighted arithmetic mean (AVEw) of normalized fluorescence intensity relative to DMSO basis level 1.0 [8]: 0.5 ± 0.1; Activity Range: weighted arithmetic mean (AVEw) of normalized fluorescence intensity relative to DMSO basis level 1.0 ([13]; compound at 20 μM): 0.2 ± 0.1; Activity Range: weighted arithmetic mean (AVEw) of normalized fluorescence intensity relative to DMSO basis level 1.0 [15]: 1.0 ± 0.0; Activity Range: weighted arithmetic mean (AVEw) of normalized fluorescence intensity relative to DMSO basis level 1.0 [16]: 0.4 ± 0.0
CCOC(=O)c1ccc(Oc2ccc(C3CCN(C)CC3)cc2)cc1 [XPA-0064, ethyl 4-(4-(1-methylpiperidin-4-yl)phenoxy)benzoate]	70 to 80	20 to 40	40 to 60	0 to 20	0 to 20	40 to 60	70 to 80	0 to 20	0 to 20	0 to 20	0 to 20	0 to 20	0 to 20	–
C[C@H](NC(=O)Cc1cc(F)cc(F)c1)C(=O)N[C@H](C(=O)OC(C)(C)C)c1ccccc1 [DAPT]	–	–	–	–	–	–	–	–	–	–	–	–	–	Activity Range: weighted arithmetic mean (AVEw) of double-normalized Notch-reporter luminescence, relative to DMSO basis level 1.0 [18]: 0.1 ± 0.0
c1ccc(COC2(c3ccc(Oc4ccc(C5CCCCC5)cc4)cc3)CNC2)cc1 [XPA-1317, 3-(benzyloxy)-3-(4-(4-cyclohexylphenoxy)phenyl)azetidine]	0 to 20	0 to 20	0 to 20	0 to 20	0 to 20	0 to 20	0 to 20	0 to 20	0 to 20	0 to 20	0 to 20	0 to 20	0 to 20	–
COC1(c2ccc(Oc3ccc(C45CC6CC(CC(C6)C4)C5)cc3)cc2)CN(C)C1 [XPA-0238, 3-(4-(4-((3r,5r,7r)-adamantan-1-yl)phenoxy)phenyl)-3-methoxy-1-methylazetidine]	0 to 20	0 to 20	0 to 20	0 to 20	0 to 20	0 to 20	0 to 20	0 to 20	0 to 20	0 to 20	0 to 20	0 to 20	40 to 60	–
